This is an account of results in ChEMBL document CHEMBL1138244, “Three-dimensional quantitative structure-activity relationships and activity predictions of human TRPV1 channel antagonists: comparative molecular field analysis and comparative molecular similarity index analysis of cinnamides” (J Med Chem, 2007).

The IC50 is the midpoint of a concentration-inhibition curve. Lower therefore signals greater potency in that assay. As a reminder, the pIC50 is −log10 of the IC50, conventionally taken in molar units. A low value points to a large IC50.

A short description of the test: Inhibition of rat human chimera TRPV1 channel expressed in CHO cells. Format: cell-based.
`O=C(/C=C/c1ccc(C(F)(F)F)cc1C(F)(F)F)Nc1ccc2c(c1)OCCO2`: the half-inhibitory concentration (IC50) is 0.451 µM and the negative-log IC50 (pIC50) was 6.35.
For `CC(C)(C)c1ccc(/C=C/C(=O)Nc2cccc(OCCO)c2)cc1`, in that order: 0.859 µM and 6.07.
The corresponding values for `Cc1ccc(/C=C/C(=O)Nc2ccc3c(c2)OCCO3)cc1C` are 0.455 µM and 6.34.
The corresponding values for `C/C(=C\C(=O)Nc1ccc2c(c1)OCCO2)c1ccc(C(C)(C)C)cc1` are 0.082 µM and 7.09.
Turning to `C/C(=C\c1ccc(C(C)(C)C)cc1)C(=O)Nc1ccc2c(c1)OCCO2`, half-maximal inhibition (IC50) required 0.164 µM and the negative logarithm of the IC50 (pIC50) is on record as 6.78.
For `CC(C)(C)c1ccc(/C=C/C(=O)Nc2ccccc2)cc1`, in that order: 0.269 µM and 6.57.
For `CCC(C)(C)c1ccc(/C=C/C(=O)Nc2ccc3c(c2)OCCO3)cc1`, in that order: 0.048 µM and 7.32.
The corresponding values for `CC(C)(C)c1ccc(/C=C/C(=O)Nc2ccc3c(c2)OCCO3)nc1` are 1.06 µM and 5.97.
In turn, `CC(C)(C)c1ccc(/C=C/C(=O)Nc2ccc3c(c2)NCCO3)cc1` came in with a 50% inhibitory concentration (IC50) of 0.173 µM.
Take `Cc1ccc(/C(=C/C(=O)Nc2ccc3c(c2)OCCO3)c2ccc(C(C)(C)C)cc2)cc1`: the half-inhibitory concentration (IC50) was 0.093 µM and the negative-log IC50 (pIC50) came to 7.03.
The corresponding values for `O=C(/C=C/c1ccc([N+](=O)[O-])cc1)Nc1ccc2c(c1)OCCO2` are 0.583 µM and 6.23.
For `CC(=O)Nc1ccc(/C=C/C(=O)Nc2ccc3c(c2)OCCO3)cc1`, in that order: more than 40 µM and 4.4.
The corresponding values for `O=C(/C=C/c1ccc(Br)cc1)Nc1ccc2c(c1)OCCO2` are 0.339 µM and 6.47.
`O=C(C=C(c1ccc(Br)cc1)c1ccc(Br)cc1)Nc1ccc2c(c1)OCCO2` registered an IC50 of 0.061 µM and a negative-log IC50 (pIC50) of 7.22.
The corresponding values for `CC(C)(C)c1ccc(/C=C/C(=O)Nc2ccc3c(c2)OC[C@@H](CN)O3)cc1` are 1.27 µM and 5.9.
For `CC(C)C/C(=C\C(=O)Nc1ccc2c(c1)OCCO2)c1ccc(C(C)(C)C)cc1`, in that order: 0.041 µM and 7.38.
The corresponding values for `O=C(/C=C/c1ccc(Cl)cc1)Nc1ccc2c(c1)OCCO2` are 0.216 µM and 6.67.
With `CC(=O)Oc1ccc(/C=C/C(=O)Nc2ccc3c(c2)OCCO3)cc1`, the IC50 worked out at 2.33 µM and the negative logarithm of the IC50 (pIC50) is listed as 5.63.
Turning to `CC(C)(C)c1ccc(/C=C/C(=S)Nc2ccc3c(c2)OCCO3)cc1`, it took 0.392 µM to reach half-maximal inhibition (IC50) and the pIC50 was 6.41.
Regarding `CN(C(=O)/C=C/c1ccc(C(C)(C)C)cc1)c1ccc2c(c1)OCCO2`, the IC50 was 19.4 µM and the negative-log IC50 (pIC50) was determined as 4.71.
The corresponding values for `CCc1ccc(/C=C/C(=O)Nc2ccc3c(c2)OCCO3)cc1` are 0.247 µM and 6.61.
For `CC(C)(C)c1ccc(/C=C/C(=O)Nc2ccc3c(c2)O[C@@H](CO)CO3)cc1`, in that order: 0.254 µM and 6.59.
The corresponding values for `CC(C)(C)c1ccc(/C(=C\C(=O)Nc2ccc3c(c2)OCCO3)c2ccc(F)cc2)cc1` are 0.039 µM and 7.41.
`Cc1cccc(/C(=C/C(=O)Nc2ccc3c(c2)OCCO3)c2ccc(C(C)(C)C)cc2)c1`: inhibition was half-maximal at 0.059 µM (IC50) and the negative-log IC50 (pIC50) is on record as 7.23.
The corresponding values for `O=C(/C=C/c1ccc(I)cc1)Nc1ccc2c(c1)OCCO2` are 0.509 µM and 6.29.
`CC(C)(C)c1ccc(/C=C/C(=O)Nc2ccc3cccnc3c2)cc1` showed a concentration for half-maximal inhibition (IC50) of 0.003 µM.
Molecule `CC(C)(C)c1ccc(/C=C/C(=O)Nc2ccc3cc[nH]c3c2)cc1` returned an IC50 of 0.019 µM.
Take `Cc1ccc(C(=CC(=O)Nc2ccc3c(c2)OCCO3)c2ccc(C)cc2)cc1`: the IC50 was 0.247 µM and the pIC50 worked out at 6.61.
The corresponding values for `CCOC(=O)CC/C(=C\C(=O)Nc1ccc2c(c1)OCCO2)c1ccc(C(C)(C)C)cc1` are 0.056 µM and 7.25.
The corresponding values for `CC/C(=C\c1ccc(C(C)(C)C)cc1)C(=O)Nc1ccc2c(c1)OCCO2` are 0.501 µM and 6.3.
For `CC(C)(C)c1ccc(/C(=C/C(=O)Nc2ccc3c(c2)OCCO3)c2ccccc2)cc1`, in that order: 0.048 µM and 7.32.
For the molecule `O=C(/C=C/c1ccc(O)cc1)Nc1ccc2c(c1)OCCO2`, the half-maximal inhibitory concentration (IC50) was more than 40 µM and the pIC50 came out at 4.4.
The corresponding values for `COc1cccc(/C(=C/C(=O)Nc2ccc3c(c2)OCCO3)c2ccc(C(C)(C)C)cc2)c1` are 0.155 µM and 6.81.
For `CC(C)(C)c1ccc(/C(=C\C(=O)Nc2ccc3c(c2)OCCO3)c2ccc(Cl)cc2)cc1`, in that order: 0.042 µM and 7.37.
The corresponding values for `CCOC(=O)c1cc(C(C)(C)C)ccc1/C=C/C(=O)Nc1ccc2c(c1)OCCO2` are 0.026 µM and 7.58.
In turn, `CC(C)(C)c1cccc(/C=C/C(=O)Nc2ccc3c(c2)OCCO3)c1` gave a half-inhibitory concentration (IC50) of 0.548 µM and a negative-log IC50 (pIC50) of 6.26.
